pEC50: −log10 of the molar value. Marks after values point to notes of the source that are not given here.
What was measured:
p53 Y220C [1] = target: T1, p53 Y220C (Homo sapiens, UniProt P04637, P309S/R273H/Y220C); assay: DNA binding test (HTRF): binding of P53Y220C protein to DNA; type: biochemical; settings: HTRF, activation of p53 Y220C (aa 94-312) binding to biotin DNA
T1 construct: a truncated mutant containing only amino acids 94-312 of p53; made in house; host or cells: E. coli
Description: (§1) In order to detect the ability of the aforementioned compounds to increase the binding of P53Y220C protein to DNA, the binding activity of p53 Y220C was measured by homogeneous time-resolved fluorescence (HTRF). Recombinant His-tagged p53 Y220C for HTRF measurement was expressed in bacteria E. coli. The recombinant protein was a truncated mutant containing only amino acids 94-312 of p53, and its sequence was […] […] VEGNLR […] TFRh[…] […]. The sense strand of the DNA double strand was 5′-[…]-3′, with a biotin tag at the 5′ end for activity assay, and the antisense strand was 5′-[…]-3′ 40 mL of assay buffer (20 mM Tris HCL, pH 7.5, 50 mM NaCl, 2 mM MgCl2, 0.02% Tween 20, 0.01% BSA, 1 mM DTT) was prepared. 10 mM compound was prepared and subjected to 3-fold dilution to obtain 10 dose gradient dilutions of the compound. 20 nL of the compound was added to a 384-well assay plate (PerkinElmer 6007299) using an Echo 655 Liquid Handler. P53Y220C protein was dissolved in assay buffer to reach a final concentration of 150 nM, and 5 μL thereof was added to each well, and incubated at room temperature for 5 min. DNA was dissolved in assay buffer to reach a final concentration of 150 nM, and 5 μL thereof was added to each well, and incubated at room temperature for 15 min. Anti 6HIS-XL665 (Cisbio 61HISXLB) was dissolved in assay buffer to reach a final concentration of 20 nM, and 5 μL thereof was added to each well. Streptavidin-Eu cryptate (Cisbio 610SAKLA) was dissolved in assay buffer to reach a final concentration of 0.625 nM, and 5 μL thereof was added to each well, and incubated at 27° C. for 1 hour. The plate was then read for signal values on an Envision (PerkinElmer 2105-0020) plate reader at 665 nm and 615 nm, respectively. […] Activation rate={(A-C)/(C)}*100%, A=(signal value at 665 nm/signal value at 615 nm); C=average signal of negative control (wherein, negative control referred to 0.1% DMSO).

p53 Y220C [2] = target: T2, p53 Y220C (Homo sapiens, UniProt P04637, Y220C); assay: as above; type: biochemical; settings: multiple ratio of EC50 of the compound to the reference compound, DNA binding test
T2 construct: a truncated mutant containing only amino acids 94-312 of p53; made in house; host or cells: E. coli
Description: as §1

NUGC-3 cells = assay: NUGC-3 cell proliferation assay (CTG); type: cell-based, human; settings: for Compound GI50 (nM)/Reference compound GI50 (nM): multiple ratio of GI50 of the compound to the reference compound; for GI50: 6 days, CTG
Description: In order to detect the inhibitory effect of the aforementioned compounds on the proliferation ability of NUGC-3 cells, 250 NUGC-3 cells (Nanjing Cobioer Biosciences Co., Ltd., CBP60492) were seeded into a 384-well plate (Corning 3765), 35 μL per well, and incubated overnight in a constant temperature incubator at 37° C. and 5% CO2. Then, 40 nL of the compound was added to the 384-well plate using an Echo 655 Liquid Handler, with a maximum final concentration of 10 μM, 1:3 serial dilutions, and a total of 10 doses. The culture was performed at 37° C. and 5% CO2 for 6 days. The plate was taken out from the incubator and equilibrated at room temperature for 10 minutes. 20 μL of CTG (Promage G7572) was added to each well of the plate according to the platemap. The plate was centrifuged at 1000 rpm for 1 min. The lysis of cells was induced by mixing on a shaker for 2 min. The plate was centrifuged at 1000 rpm for 1 min. Incubation was performed at room temperature for 10 min to stabilize luminescence signals. Luminescence values were recorded by Envision (PerkinElmer 2105-0020). GraphPad 9.0 was used to fit the inhibition rate and compound concentration into a nonlinear regression curve (dose response-variable slope) to calculate GI50, inhibition rate={1−(A−B)/(C−B)}*100%, A=signal value of compound; B=average signal of blank control; C=average signal of negative control (wherein negative control was 0.1% DMSO).

Row | Structure (SMILES) | pEC50 (p53 Y220C [1]) | Compound EC50 (nM)/Reference compound EC50 (nM) (p53 Y220C [2]) | Compound GI50 (nM)/Reference compound GI50 (nM) (NUGC-3 cells) | GI50 (NUGC-3 cells; Homo sapiens, NUGC-3, 144 h) [µM] | GI50 (NUGC-3 cells) [µM]
1 | COc1cc(C(=O)N2CCC2)ccc1NCC#Cc1nc2c(N[C@@H]3CC[C@@H](N4CC5(COC5)C4)C[C@@H]3F)cccn2c1CC(F)(F)F [Compound 51] | > 7.00 | A (A: EC50 of the compound≤EC50 of the reference compound) | C (C: GI50 of the compound ≥ 3 * GI50 of the reference compound) |  | 
2 | COc1cc(-c2nccs2)ccc1NCC#Cc1nc2c(NC3CCN(C)CC3)cccn2c1CC(F)(F)F [Compound 16] | 6.30 to 7.00 | C (C: EC50 of the compound≥3*EC50 of the reference compound) | C (C: GI50 of the compound ≥ 3 * GI50 of the reference compound) | ≥ 5 | 
3 | CNC(=O)c1ccc(NCC#Cc2nc3c(N[C@@H]4CCN(CCOC)C[C@@H]4F)cccn3c2CC(F)(F)F)c(OC)c1 [Compound 21] | 6.30 to 7.00 | C (C: EC50 of the compound≥3*EC50 of the reference compound) | C (C: GI50 of the compound ≥ 3 * GI50 of the reference compound) | 1 to 5 | 
4 | CNC(=O)c1ccc(NCC#Cc2nc3c(NC4CCN(CC(O)COC)CC4)cccn3c2CC(F)(F)F)c(OC)c1 (stereo not drawn) [Compound 7] | 6.30 to 7.00 | C (C: EC50 of the compound≥3*EC50 of the reference compound) | C (C: GI50 of the compound ≥ 3 * GI50 of the reference compound) | 1 to 5 | 
5 | CN1CCC(Nc2cccn3c(CC(F)(F)F)c(-c4nnc(CNC(=O)c5cnn(C6CCOC6)c5)s4)nc23)CC1 (stereo not drawn) [Compound 22] | 6.30 to 7.00 | B (B: EC50 of the reference compound<EC50 of the compound≤3.0*EC50 of the reference compound) | C (C: GI50 of the compound ≥ 3 * GI50 of the reference compound) | ≥ 5 | 
6 | COCCNC(=O)c1ccc(NCC#Cc2nc3c(NC4CCN(C)CC4)cccn3c2CC(F)(F)F)c(OC)c1 [Compound 30] | 6.30 to 7.00 | C (C: EC50 of the compound≥3*EC50 of the reference compound) | C (C: GI50 of the compound ≥ 3 * GI50 of the reference compound) | 1 to 5 | 
7 | CN1CCC(Nc2cccn3c(CC(F)(F)F)c(-c4ncc(CNC(=O)c5ccn(C(C)(C)C)c5)s4)nc23)CC1 [Compound 24] | 6.30 to 7.00 | C (C: EC50 of the compound≥3*EC50 of the reference compound) | C (C: GI50 of the compound ≥ 3 * GI50 of the reference compound) | 1 to 5 | 
8 | CCNC(=O)c1ccc(NCC#Cc2nc3c(N[C@@H]4CC[C@@H](N5CC6(COC6)C5)C[C@@H]4F)cccn3c2CC(F)(F)F)c(OC)c1 [Compound 50] | > 7.00 | A (A: EC50 of the compound≤EC50 of the reference compound) | C (C: GI50 of the compound ≥ 3 * GI50 of the reference compound) |  | 
9 | CNC(=O)c1ccc(NCC#Cc2nc3c(NC4CCC(F)(F)CC4)cccn3c2CC(F)(F)F)c(OC)c1 [Compound 6] | 6.30 to 7.00 | C (C: EC50 of the compound≥3*EC50 of the reference compound) | C (C: GI50 of the compound ≥ 3 * GI50 of the reference compound) | ≥ 5 | 
10 | CNC(=O)c1ccc(NCC#Cc2nc3c(NC4CCC(N5CC6(COC6)C5)CC4F)cccn3c2CC(F)(F)F)c(OC)c1 (single isomer, unassigned) [Compound 35-6j] | > 7.00 | C (C: EC50 of the compound≥3*EC50 of the reference compound) | C (C: GI50 of the compound ≥ 3 * GI50 of the reference compound) |  | < 1
11 | CNC(=O)c1ccc(NCC#Cc2nc3c(NC4CCC(N5CC6(COC6)C5)CC4F)cccn3c2CC(F)(F)F)c(OC)c1 (single isomer, unassigned) [Compound 35-6g] | 6.30 to 7.00 | C (C: EC50 of the compound≥3*EC50 of the reference compound) | C (C: GI50 of the compound ≥ 3 * GI50 of the reference compound) |  | ≥ 5
12 | CNC(=O)c1ccc(NCC#Cc2nc3c(NC4CCC(C)(O)CC4)cccn3c2CC(F)(F)F)c(OC)c1 (stereo not drawn) [Compound 25] | 6.30 to 7.00 | C (C: EC50 of the compound≥3*EC50 of the reference compound) | C (C: GI50 of the compound ≥ 3 * GI50 of the reference compound) | ≥ 5 | 
13 | COc1cc(C(=O)NC2CCOCC2)ccc1NCC#Cc1nc2c(NC3CCN(C)CC3)cccn2c1CC(F)(F)F [Compound 29] | 6.30 to 7.00 | C (C: EC50 of the compound≥3*EC50 of the reference compound) | C (C: GI50 of the compound ≥ 3 * GI50 of the reference compound) | 1 to 5 | 
14 | CNC(=O)c1ccc(NCC#Cc2nc3c(NC4CCC(N5CC6(COC6)C5)CC4F)cccn3c2CC(F)(F)F)c(OC)c1 (single isomer, unassigned) [Compound 35-6e] | 6.30 to 7.00 | C (C: EC50 of the compound≥3*EC50 of the reference compound) | C (C: GI50 of the compound ≥ 3 * GI50 of the reference compound) |  | ≥ 5
15 | CNC(=O)c1ccc(NCC#Cc2nc3c(NC4CCN(C)CC4)cncn3c2CC(F)(F)F)c(OC)c1 [Compound 2] | ≤ 6.00 | C (C: EC50 of the compound≥3*EC50 of the reference compound) | C (C: GI50 of the compound ≥ 3 * GI50 of the reference compound) |  | 
16 | CNC(=O)c1ccc(NCC#Cc2nc3c(NC4CCC(N5CC6(COC6)C5)CC4F)cccn3c2CC(F)(F)F)c(OC)c1 (single isomer, unassigned) [Compound 35-6f] | > 7.00 | B (B: EC50 of the reference compound<EC50 of the compound≤3.0*EC50 of the reference compound) | C (C: GI50 of the compound ≥ 3 * GI50 of the reference compound) |  | 1 to 5
17 | CNC(=O)c1ccc(NCC#Cc2nc3c(NC4CC[C@@H](N5CCC5)C[C@@H]4F)cccn3c2CC(F)(F)F)c(OC)c1 (stereo partly drawn) [Compound 40] | > 7.00 | B (B: EC50 of the reference compound<EC50 of the compound≤3.0*EC50 of the reference compound) | B (B: GI50 of the reference compound < GI50 of the compound ≤ 3.0 * GI50 of the reference compound) | < 1 | 
18 | COc1cc(S(=N)(=O)C2CC2)ccc1NCC#Cc1cc2c(NC3CCN(C)CC3F)cccc2n1CC(F)(F)F (single isomer, unassigned) [Compound 39d] | > 7.00 | A (A: EC50 of the compound≤EC50 of the reference compound) | A (A: GI50 of the compound ≤ GI50 of the reference compound) |  | 
19 | COc1cc(P(C)(C)=O)ccc1NCC#Cc1nc2c(N[C@@H]3CCN(C)C[C@@H]3F)cccn2c1CC(F)(F)F [Compound 14] | 6.30 to 7.00 | B (B: EC50 of the reference compound<EC50 of the compound≤3.0*EC50 of the reference compound) | B (B: GI50 of the reference compound < GI50 of the compound ≤ 3.0 * GI50 of the reference compound) | 1 to 5 | 
